Activity calls are given as the source filed them. The calls are words filed in the database; no cut-off is given here.
Columns and labels:
[1] = target: Acetylcholinesterase (Electrophorus electricus) (UniProt O42275); assay: Compound was tested against electric eel Acetylcholinesterase; Inactive
[2] = target: T1, Acetylcholinesterase (Mus musculus) (UniProt P21836); assay: Compound was tested against recombinant mouse Acetylcholinesterase; 5-40 uM, Modest inhibition
T1 sequence (whole entry): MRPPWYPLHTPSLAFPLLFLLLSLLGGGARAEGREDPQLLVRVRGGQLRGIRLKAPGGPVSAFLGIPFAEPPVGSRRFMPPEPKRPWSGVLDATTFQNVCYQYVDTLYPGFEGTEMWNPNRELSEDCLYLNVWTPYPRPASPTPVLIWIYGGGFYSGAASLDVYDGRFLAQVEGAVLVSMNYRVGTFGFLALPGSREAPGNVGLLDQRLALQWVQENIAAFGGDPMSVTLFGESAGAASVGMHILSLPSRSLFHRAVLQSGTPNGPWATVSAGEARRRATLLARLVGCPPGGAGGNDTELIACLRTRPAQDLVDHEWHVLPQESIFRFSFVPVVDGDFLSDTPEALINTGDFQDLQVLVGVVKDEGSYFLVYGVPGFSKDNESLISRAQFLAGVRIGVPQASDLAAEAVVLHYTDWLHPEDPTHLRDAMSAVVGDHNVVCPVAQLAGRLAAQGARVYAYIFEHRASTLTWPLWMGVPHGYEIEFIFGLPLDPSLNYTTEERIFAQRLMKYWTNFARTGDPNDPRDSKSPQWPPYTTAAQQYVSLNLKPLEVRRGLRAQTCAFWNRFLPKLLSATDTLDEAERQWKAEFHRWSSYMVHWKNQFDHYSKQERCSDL

Acetylcholinesterase (Electrophorus electricus), sequence (O42275 24-633 limits assumed): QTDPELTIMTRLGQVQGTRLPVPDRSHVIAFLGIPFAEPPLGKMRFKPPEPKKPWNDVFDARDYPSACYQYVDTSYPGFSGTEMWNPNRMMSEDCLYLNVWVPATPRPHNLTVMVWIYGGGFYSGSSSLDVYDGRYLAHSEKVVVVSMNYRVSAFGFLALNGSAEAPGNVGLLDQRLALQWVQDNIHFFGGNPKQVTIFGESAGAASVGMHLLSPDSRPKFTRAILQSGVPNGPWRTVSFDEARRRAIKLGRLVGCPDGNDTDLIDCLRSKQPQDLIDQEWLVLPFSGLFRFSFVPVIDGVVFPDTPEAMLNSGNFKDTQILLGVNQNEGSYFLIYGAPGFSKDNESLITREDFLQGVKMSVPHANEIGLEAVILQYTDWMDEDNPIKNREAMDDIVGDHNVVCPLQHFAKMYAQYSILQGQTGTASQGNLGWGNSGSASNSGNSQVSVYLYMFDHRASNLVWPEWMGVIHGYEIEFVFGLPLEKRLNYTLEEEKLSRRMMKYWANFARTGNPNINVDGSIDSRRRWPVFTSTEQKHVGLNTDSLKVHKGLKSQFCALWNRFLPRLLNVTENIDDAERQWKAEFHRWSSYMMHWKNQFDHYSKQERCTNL

| SMILES | Activity [1] | Concentration [2] [µM] |
| --- | --- | --- |
| COP(=O)(CC(=O)N[C@@H](CCCCNS(=O)(=O)c1ccc2ccc3cccc4ccc1c2c34)C(N)=O)SC (some centres undefined) | inactive | 40 |
| COP(=O)(CC(=O)N[C@@H](CCCCNS(=O)(=O)c1ccc2ccc3cccc4ccc1c2c34)C(N)=O)OC | inactive | 40 |

Reference: ChEMBL document CHEMBL1133225
